# Source: the supplement of paper PMC8882468
# Test system: HCI-002 (organoid from a triple-negative breast cancer xenograft)
# Test: CTG-3D luminescence at 96 h relative to day-0 seeding control (ratio to day 0); higher = more growth / less cytotoxicity; PDxO 3D drug screen, 96 h, CTG-3D normalised to day-0 seeding control.
# Conditions: 1 µM; days in culture: 62
row,Structure (SMILES),CTG-3D luminescence at 96 h
1,CC(C)n1nc(-c2ccc3oc(N)nc3c2)c2c(N)ncnc21 [sapanisertib],0.579
2,Cc1nc(-c2cn3c(n2)-c2ccc(-c4cnn(C(C)(C)C(N)=O)c4)cc2OCC3)n(C(C)C)n1 [taselisib],1.75
3,Cc1cc(Nc2ncnc3ccc(NC4=NC(C)(C)CO4)cc23)ccc1Oc1ccn2ncnc2c1 [tucatinib],2.68
4,CS(=O)(=O)c1ccc(C(=O)Nc2ccc(Cl)c(-c3ccccn3)c2)c(Cl)c1 [vismodegib],3.05
5,CNC(=O)c1cccc(-c2ccc3c(N4CCOC[C@@H]4C)nc(N4CCOC[C@@H]4C)nc3n2)c1 [vistusertib],1.07

# Same assay, conditions: 1 µM; days in culture: 82
row,Structure (SMILES),CTG-3D luminescence at 96 h
1,CC(C)n1nc(-c2ccc3oc(N)nc3c2)c2c(N)ncnc21 [sapanisertib],0.633
2,Cc1nc(-c2cn3c(n2)-c2ccc(-c4cnn(C(C)(C)C(N)=O)c4)cc2OCC3)n(C(C)C)n1 [taselisib],1.79
3,Cc1cc(Nc2ncnc3ccc(NC4=NC(C)(C)CO4)cc23)ccc1Oc1ccn2ncnc2c1 [tucatinib],2.75
4,CS(=O)(=O)c1ccc(C(=O)Nc2ccc(Cl)c(-c3ccccn3)c2)c(Cl)c1 [vismodegib],2.51
5,CNC(=O)c1cccc(-c2ccc3c(N4CCOC[C@@H]4C)nc(N4CCOC[C@@H]4C)nc3n2)c1 [vistusertib],1.07

# Same assay, conditions: 1 µM; days in culture: 91
row,Structure (SMILES),CTG-3D luminescence at 96 h
1,CC(C)n1nc(-c2ccc3oc(N)nc3c2)c2c(N)ncnc21 [sapanisertib],0.846
2,Cc1nc(-c2cn3c(n2)-c2ccc(-c4cnn(C(C)(C)C(N)=O)c4)cc2OCC3)n(C(C)C)n1 [taselisib],1.64
3,Cc1cc(Nc2ncnc3ccc(NC4=NC(C)(C)CO4)cc23)ccc1Oc1ccn2ncnc2c1 [tucatinib],2.2
4,CS(=O)(=O)c1ccc(C(=O)Nc2ccc(Cl)c(-c3ccccn3)c2)c(Cl)c1 [vismodegib],1.77
5,CNC(=O)c1cccc(-c2ccc3c(N4CCOC[C@@H]4C)nc(N4CCOC[C@@H]4C)nc3n2)c1 [vistusertib],1.19

# Same assay, conditions: 1 µM; days in culture: 191
row,Structure (SMILES),CTG-3D luminescence at 96 h
1,CC(C)n1nc(-c2ccc3oc(N)nc3c2)c2c(N)ncnc21 [sapanisertib],0.718
2,Cc1nc(-c2cn3c(n2)-c2ccc(-c4cnn(C(C)(C)C(N)=O)c4)cc2OCC3)n(C(C)C)n1 [taselisib],2.1
3,Cc1cc(Nc2ncnc3ccc(NC4=NC(C)(C)CO4)cc23)ccc1Oc1ccn2ncnc2c1 [tucatinib],3.12
4,CS(=O)(=O)c1ccc(C(=O)Nc2ccc(Cl)c(-c3ccccn3)c2)c(Cl)c1 [vismodegib],3.62
5,CNC(=O)c1cccc(-c2ccc3c(N4CCOC[C@@H]4C)nc(N4CCOC[C@@H]4C)nc3n2)c1 [vistusertib],1.41

# Same assay, conditions: 1 µM; days in culture: 209
row,Structure (SMILES),CTG-3D luminescence at 96 h
1,CC(C)n1nc(-c2ccc3oc(N)nc3c2)c2c(N)ncnc21 [sapanisertib],0.446
2,Cc1nc(-c2cn3c(n2)-c2ccc(-c4cnn(C(C)(C)C(N)=O)c4)cc2OCC3)n(C(C)C)n1 [taselisib],1.5
3,Cc1cc(Nc2ncnc3ccc(NC4=NC(C)(C)CO4)cc23)ccc1Oc1ccn2ncnc2c1 [tucatinib],2.19
4,CS(=O)(=O)c1ccc(C(=O)Nc2ccc(Cl)c(-c3ccccn3)c2)c(Cl)c1 [vismodegib],2.77
5,CNC(=O)c1cccc(-c2ccc3c(N4CCOC[C@@H]4C)nc(N4CCOC[C@@H]4C)nc3n2)c1 [vistusertib],0.917

# Same assay, conditions: 1 µM; days in culture: 227
row,Structure (SMILES),CTG-3D luminescence at 96 h
1,CC(C)n1nc(-c2ccc3oc(N)nc3c2)c2c(N)ncnc21 [sapanisertib],0.801
2,Cc1nc(-c2cn3c(n2)-c2ccc(-c4cnn(C(C)(C)C(N)=O)c4)cc2OCC3)n(C(C)C)n1 [taselisib],2.79
3,Cc1cc(Nc2ncnc3ccc(NC4=NC(C)(C)CO4)cc23)ccc1Oc1ccn2ncnc2c1 [tucatinib],4.14
4,CS(=O)(=O)c1ccc(C(=O)Nc2ccc(Cl)c(-c3ccccn3)c2)c(Cl)c1 [vismodegib],3.49
5,CNC(=O)c1cccc(-c2ccc3c(N4CCOC[C@@H]4C)nc(N4CCOC[C@@H]4C)nc3n2)c1 [vistusertib],1.39

# Same assay, conditions: 10 µM; days in culture: 62
row,Structure (SMILES),CTG-3D luminescence at 96 h
1,CC(C)n1nc(-c2ccc3oc(N)nc3c2)c2c(N)ncnc21 [sapanisertib],0.418
2,Cc1nc(-c2cn3c(n2)-c2ccc(-c4cnn(C(C)(C)C(N)=O)c4)cc2OCC3)n(C(C)C)n1 [taselisib],1.12
3,Cc1cc(Nc2ncnc3ccc(NC4=NC(C)(C)CO4)cc23)ccc1Oc1ccn2ncnc2c1 [tucatinib],2.44
4,CS(=O)(=O)c1ccc(C(=O)Nc2ccc(Cl)c(-c3ccccn3)c2)c(Cl)c1 [vismodegib],2.96
5,CNC(=O)c1cccc(-c2ccc3c(N4CCOC[C@@H]4C)nc(N4CCOC[C@@H]4C)nc3n2)c1 [vistusertib],0.702

# Same assay, conditions: 10 µM; days in culture: 82
row,Structure (SMILES),CTG-3D luminescence at 96 h
1,CC(C)n1nc(-c2ccc3oc(N)nc3c2)c2c(N)ncnc21 [sapanisertib],0.403
2,Cc1nc(-c2cn3c(n2)-c2ccc(-c4cnn(C(C)(C)C(N)=O)c4)cc2OCC3)n(C(C)C)n1 [taselisib],1.08
3,Cc1cc(Nc2ncnc3ccc(NC4=NC(C)(C)CO4)cc23)ccc1Oc1ccn2ncnc2c1 [tucatinib],1.59
4,CS(=O)(=O)c1ccc(C(=O)Nc2ccc(Cl)c(-c3ccccn3)c2)c(Cl)c1 [vismodegib],2.14
5,CNC(=O)c1cccc(-c2ccc3c(N4CCOC[C@@H]4C)nc(N4CCOC[C@@H]4C)nc3n2)c1 [vistusertib],0.582

# Same assay, conditions: 10 µM; days in culture: 91
row,Structure (SMILES),CTG-3D luminescence at 96 h
1,CC(C)n1nc(-c2ccc3oc(N)nc3c2)c2c(N)ncnc21 [sapanisertib],0.697
2,Cc1nc(-c2cn3c(n2)-c2ccc(-c4cnn(C(C)(C)C(N)=O)c4)cc2OCC3)n(C(C)C)n1 [taselisib],1.32
3,Cc1cc(Nc2ncnc3ccc(NC4=NC(C)(C)CO4)cc23)ccc1Oc1ccn2ncnc2c1 [tucatinib],2.58
4,CS(=O)(=O)c1ccc(C(=O)Nc2ccc(Cl)c(-c3ccccn3)c2)c(Cl)c1 [vismodegib],2.07
5,CNC(=O)c1cccc(-c2ccc3c(N4CCOC[C@@H]4C)nc(N4CCOC[C@@H]4C)nc3n2)c1 [vistusertib],0.884

# Same assay, conditions: 10 µM; days in culture: 191
row,Structure (SMILES),CTG-3D luminescence at 96 h
1,CC(C)n1nc(-c2ccc3oc(N)nc3c2)c2c(N)ncnc21 [sapanisertib],0.443
2,Cc1nc(-c2cn3c(n2)-c2ccc(-c4cnn(C(C)(C)C(N)=O)c4)cc2OCC3)n(C(C)C)n1 [taselisib],0.981
3,Cc1cc(Nc2ncnc3ccc(NC4=NC(C)(C)CO4)cc23)ccc1Oc1ccn2ncnc2c1 [tucatinib],2.01
4,CS(=O)(=O)c1ccc(C(=O)Nc2ccc(Cl)c(-c3ccccn3)c2)c(Cl)c1 [vismodegib],2.89
5,CNC(=O)c1cccc(-c2ccc3c(N4CCOC[C@@H]4C)nc(N4CCOC[C@@H]4C)nc3n2)c1 [vistusertib],0.774

# Same assay, conditions: 10 µM; days in culture: 209
row,Structure (SMILES),CTG-3D luminescence at 96 h
1,CC(C)n1nc(-c2ccc3oc(N)nc3c2)c2c(N)ncnc21 [sapanisertib],0.209
2,Cc1nc(-c2cn3c(n2)-c2ccc(-c4cnn(C(C)(C)C(N)=O)c4)cc2OCC3)n(C(C)C)n1 [taselisib],0.726
3,Cc1cc(Nc2ncnc3ccc(NC4=NC(C)(C)CO4)cc23)ccc1Oc1ccn2ncnc2c1 [tucatinib],1.5
4,CS(=O)(=O)c1ccc(C(=O)Nc2ccc(Cl)c(-c3ccccn3)c2)c(Cl)c1 [vismodegib],2.31
5,CNC(=O)c1cccc(-c2ccc3c(N4CCOC[C@@H]4C)nc(N4CCOC[C@@H]4C)nc3n2)c1 [vistusertib],0.345

# Same assay, conditions: 10 µM; days in culture: 227
row,Structure (SMILES),CTG-3D luminescence at 96 h
1,CC(C)n1nc(-c2ccc3oc(N)nc3c2)c2c(N)ncnc21 [sapanisertib],0.598
2,Cc1nc(-c2cn3c(n2)-c2ccc(-c4cnn(C(C)(C)C(N)=O)c4)cc2OCC3)n(C(C)C)n1 [taselisib],1.69
3,Cc1cc(Nc2ncnc3ccc(NC4=NC(C)(C)CO4)cc23)ccc1Oc1ccn2ncnc2c1 [tucatinib],3.82
4,CS(=O)(=O)c1ccc(C(=O)Nc2ccc(Cl)c(-c3ccccn3)c2)c(Cl)c1 [vismodegib],4.34
5,CNC(=O)c1cccc(-c2ccc3c(N4CCOC[C@@H]4C)nc(N4CCOC[C@@H]4C)nc3n2)c1 [vistusertib],1.12

# Same assay, conditions: 100 µM; days in culture: 62
row,Structure (SMILES),CTG-3D luminescence at 96 h
1,CC(C)n1nc(-c2ccc3oc(N)nc3c2)c2c(N)ncnc21 [sapanisertib],0.0431
2,Cc1nc(-c2cn3c(n2)-c2ccc(-c4cnn(C(C)(C)C(N)=O)c4)cc2OCC3)n(C(C)C)n1 [taselisib],0.0194
3,Cc1cc(Nc2ncnc3ccc(NC4=NC(C)(C)CO4)cc23)ccc1Oc1ccn2ncnc2c1 [tucatinib],0.0174
4,CS(=O)(=O)c1ccc(C(=O)Nc2ccc(Cl)c(-c3ccccn3)c2)c(Cl)c1 [vismodegib],0.385
5,CNC(=O)c1cccc(-c2ccc3c(N4CCOC[C@@H]4C)nc(N4CCOC[C@@H]4C)nc3n2)c1 [vistusertib],0.277

# Same assay, conditions: 100 µM; days in culture: 82
row,Structure (SMILES),CTG-3D luminescence at 96 h
1,CC(C)n1nc(-c2ccc3oc(N)nc3c2)c2c(N)ncnc21 [sapanisertib],0.0264
2,Cc1nc(-c2cn3c(n2)-c2ccc(-c4cnn(C(C)(C)C(N)=O)c4)cc2OCC3)n(C(C)C)n1 [taselisib],0.0159
3,Cc1cc(Nc2ncnc3ccc(NC4=NC(C)(C)CO4)cc23)ccc1Oc1ccn2ncnc2c1 [tucatinib],0.0194
4,CS(=O)(=O)c1ccc(C(=O)Nc2ccc(Cl)c(-c3ccccn3)c2)c(Cl)c1 [vismodegib],0.287
5,CNC(=O)c1cccc(-c2ccc3c(N4CCOC[C@@H]4C)nc(N4CCOC[C@@H]4C)nc3n2)c1 [vistusertib],0.259

# Same assay, conditions: 100 µM; days in culture: 91
row,Structure (SMILES),CTG-3D luminescence at 96 h
1,CC(C)n1nc(-c2ccc3oc(N)nc3c2)c2c(N)ncnc21 [sapanisertib],0.0524
2,Cc1nc(-c2cn3c(n2)-c2ccc(-c4cnn(C(C)(C)C(N)=O)c4)cc2OCC3)n(C(C)C)n1 [taselisib],0.0254
3,Cc1cc(Nc2ncnc3ccc(NC4=NC(C)(C)CO4)cc23)ccc1Oc1ccn2ncnc2c1 [tucatinib],0.0163
4,CS(=O)(=O)c1ccc(C(=O)Nc2ccc(Cl)c(-c3ccccn3)c2)c(Cl)c1 [vismodegib],0.194
5,CNC(=O)c1cccc(-c2ccc3c(N4CCOC[C@@H]4C)nc(N4CCOC[C@@H]4C)nc3n2)c1 [vistusertib],0.482

# Same assay, conditions: 100 µM; days in culture: 191
row,Structure (SMILES),CTG-3D luminescence at 96 h
1,CC(C)n1nc(-c2ccc3oc(N)nc3c2)c2c(N)ncnc21 [sapanisertib],0.0974
2,Cc1nc(-c2cn3c(n2)-c2ccc(-c4cnn(C(C)(C)C(N)=O)c4)cc2OCC3)n(C(C)C)n1 [taselisib],0.137
3,Cc1cc(Nc2ncnc3ccc(NC4=NC(C)(C)CO4)cc23)ccc1Oc1ccn2ncnc2c1 [tucatinib],0.0155
4,CS(=O)(=O)c1ccc(C(=O)Nc2ccc(Cl)c(-c3ccccn3)c2)c(Cl)c1 [vismodegib],0.429
5,CNC(=O)c1cccc(-c2ccc3c(N4CCOC[C@@H]4C)nc(N4CCOC[C@@H]4C)nc3n2)c1 [vistusertib],0.426

# Same assay, conditions: 100 µM; days in culture: 209
row,Structure (SMILES),CTG-3D luminescence at 96 h
1,CC(C)n1nc(-c2ccc3oc(N)nc3c2)c2c(N)ncnc21 [sapanisertib],0.0077
2,Cc1nc(-c2cn3c(n2)-c2ccc(-c4cnn(C(C)(C)C(N)=O)c4)cc2OCC3)n(C(C)C)n1 [taselisib],0.0139
3,Cc1cc(Nc2ncnc3ccc(NC4=NC(C)(C)CO4)cc23)ccc1Oc1ccn2ncnc2c1 [tucatinib],0.0106
4,CS(=O)(=O)c1ccc(C(=O)Nc2ccc(Cl)c(-c3ccccn3)c2)c(Cl)c1 [vismodegib],0.207
5,CNC(=O)c1cccc(-c2ccc3c(N4CCOC[C@@H]4C)nc(N4CCOC[C@@H]4C)nc3n2)c1 [vistusertib],0.219

# Same assay, conditions: 100 µM; days in culture: 227
row,Structure (SMILES),CTG-3D luminescence at 96 h
1,CC(C)n1nc(-c2ccc3oc(N)nc3c2)c2c(N)ncnc21 [sapanisertib],0.0372
2,Cc1nc(-c2cn3c(n2)-c2ccc(-c4cnn(C(C)(C)C(N)=O)c4)cc2OCC3)n(C(C)C)n1 [taselisib],0.0558
3,Cc1cc(Nc2ncnc3ccc(NC4=NC(C)(C)CO4)cc23)ccc1Oc1ccn2ncnc2c1 [tucatinib],0.0281
4,CS(=O)(=O)c1ccc(C(=O)Nc2ccc(Cl)c(-c3ccccn3)c2)c(Cl)c1 [vismodegib],0.447
5,CNC(=O)c1cccc(-c2ccc3c(N4CCOC[C@@H]4C)nc(N4CCOC[C@@H]4C)nc3n2)c1 [vistusertib],0.394
